{
  "source": "patent US4594358A",
  "about": "“Analgesic method” (Eli Lilly and Company, priority 1985, dated 1986)",
  "key": {"[1]": {"system": "mouse writhing", "test": "mouse writhing assay (acetic acid induced)", "type": "in vivo, mouse (albino male mice)", "conditions": "for Percent Inhibition of Writhing: Table 4, dextropropoxyphene napsylate 40 mg/kg + saline p.o.; for ability to potentiate analgesic effect of dextropropoxyphene (in words): mouse, in vivo", "source_text": "Writhing, which is characterized by contraction of the abdominal musculature, extension of the hindlegs, and rotation of the trunk, was induced in albino male mice. The extent to which writhing is reduced following administration of a test compound is an indication of the analgesic activity of that compound.\nMice, weighing 18-24 grams, were fasted overnight and given the test compounds by gavage or subcutaneously. Writhing was then induced by the intraperitoneal administration of acetic acid (0.55 to 0.60 percent). Each treatment group consisted of five mice. The total number of writhes for the treatment group was determined during a 10-minute observation period starting five minutes after acetic acid administration."}, "[2]": {"system": "monoamine uptake, especially serotonin", "conditions": "U.S. Pat. No. 4,313,896; cited from earlier work"}, "[3]": {"conditions": "administered alone (U.S. Pat. No. 4,035,511) or with morphine (U.S. Pat. No. 4,083,982); cited from earlier work"}},
  "note": "Structures can show the parent of a compound that is named as a salt. Where two headings read alike, the source gives them in different places.",
  "data": [
    {"compound": "CNCCC(Oc1ccc(C(F)(F)F)cc1)c1ccccc1", "note": "(stereo not shown) [Fluoxetine Hydrochloride]", "values": [
      {"measurement": "analgesic activity in mouse writhing test", "setting": "[1]; fluoxetine hydrochloride alone, doses up to 160 mg/kg, 30-180 minutes before writhing was induced", "value": "devoid of analgesic activity"}
    ]},
    {"compound": "CCC(=O)O[C@](Cc1ccccc1)(c1ccccc1)[C@H](C)CN(C)C", "note": "[Dextropropoxyphene Napsylate]", "values": [
      {"measurement": "ED50", "setting": "[1]; Mus musculus, po, 0.5 h, Table 3, saline pretreatment p.o. three hours prior, dextropropoxyphene napsylate p.o. 30 minutes prior to assessment, read-out: Inhibition of Mouse Writhing ED50", "value": 44.2, "unit": "mg/kg"},
      {"measurement": "ED50", "setting": "[1]; Mus musculus, po, 1 h, read-out: Inhibition of Mouse Writhing ED50", "value": 49.3, "unit": "mg/kg"},
      {"measurement": "inhibition at 10 mg/kg", "setting": "[1]; Mus musculus, po, 1 h, read-out: Percent Inhibition of Mouse Writhing", "value": 0, "unit": "%"},
      {"measurement": "ED50", "setting": "[1]; Mus musculus, sc, 0.5 h, read-out: Induced Inhibition of Mouse Writhing ED50", "value": 9.95, "unit": "mg/kg"},
      {"measurement": "Percent Inhibition of Writhing", "setting": "[1]; 30 minutes after administration", "value": 40, "unit": "%"},
      {"measurement": "Percent Inhibition of Writhing", "setting": "[1]; 60 minutes after administration", "value": 6, "unit": "%"},
      {"measurement": "Percent Inhibition of Writhing", "setting": "[1]; 70 minutes after administration", "value": 10, "unit": "%"},
      {"measurement": "Percent Inhibition of Writhing", "setting": "[1]; 120 minutes after administration", "value": 28, "unit": "%"},
      {"measurement": "Percent Inhibition of Writhing", "setting": "[1]; 180 minutes after administration", "value": 5, "unit": "%"},
      {"measurement": "inhibition of mouse writhing (in words)", "setting": "[1]; dextropropoxyphene napsylate 10 mg/kg p.o. alone, 60 minutes prior to assessment", "value": "no inhibition of the writhing"},
      {"measurement": "ED50 of dextropropoxyphene napsylate alone relative to that with fluoxetine hydrochloride", "setting": "[1]; s.c., 30 minutes, 20 mg/kg fluoxetine hydrochloride s.c. concomitantly", "value": "twice the amount needed"}
    ]},
    {"compound": "NCCC(Oc1ccc(C(F)(F)F)cc1)c1ccccc1", "note": "(stereo not shown) [Norfluoxetine, 3-(4-trifluoromethylphenoxy)-3-phenylpropylamine]", "values": [
      {"measurement": "ability to potentiate analgesic effect of dextropropoxyphene (in words)", "setting": "[1]", "value": "potentiate the analgesic effect of dextropropoxyphene"},
      {"measurement": "monoamine uptake blockade (in words)", "setting": "[2]", "value": "block monoamine uptake, especially serotonin"}
    ]},
    {"compound": "CNCCC(Oc1ccc(C(F)(F)F)cc1)c1ccccc1", "note": "(stereo not shown) [Fluoxetine, 3-(4-trifluoromethylphenoxy)-N-methyl-3-phenylpropylamine]", "values": [
      {"measurement": "analgesic properties (in words)", "setting": "[3]", "value": "possess analgesic properties"},
      {"measurement": "ability to potentiate analgesic effect of dextropropoxyphene (in words)", "setting": "[1]", "value": "potentiate the analgesic effect of dextropropoxyphene"}
    ]}
  ]
}
